In ChEMBL document CHEMBL1201862, “PubChem BioAssay data set” (2004):
Values belong to the molecule of their own block, whether it stands above or below them. Activity calls are given as the source filed them.

Columns and labels:
[1] = target: T1, Aryl hydrocarbon receptor (Homo sapiens, UniProt P35869); assay: Luminescence-based cell-based high throughput dose response assay for activators of the Aryl Hydrocarbon Receptor (AHR). [Related pubchem assays: 2796 (Primary screen (AHR activators in singlicate)), 2845 (Confirmation screen (AHR activators in triplicate)), 434939 (Counterscreen (PXR activators in triplicate)), 2804 (Summary (AHR activators))]; assay type: ADME
T1 sequence (P35869 whole entry): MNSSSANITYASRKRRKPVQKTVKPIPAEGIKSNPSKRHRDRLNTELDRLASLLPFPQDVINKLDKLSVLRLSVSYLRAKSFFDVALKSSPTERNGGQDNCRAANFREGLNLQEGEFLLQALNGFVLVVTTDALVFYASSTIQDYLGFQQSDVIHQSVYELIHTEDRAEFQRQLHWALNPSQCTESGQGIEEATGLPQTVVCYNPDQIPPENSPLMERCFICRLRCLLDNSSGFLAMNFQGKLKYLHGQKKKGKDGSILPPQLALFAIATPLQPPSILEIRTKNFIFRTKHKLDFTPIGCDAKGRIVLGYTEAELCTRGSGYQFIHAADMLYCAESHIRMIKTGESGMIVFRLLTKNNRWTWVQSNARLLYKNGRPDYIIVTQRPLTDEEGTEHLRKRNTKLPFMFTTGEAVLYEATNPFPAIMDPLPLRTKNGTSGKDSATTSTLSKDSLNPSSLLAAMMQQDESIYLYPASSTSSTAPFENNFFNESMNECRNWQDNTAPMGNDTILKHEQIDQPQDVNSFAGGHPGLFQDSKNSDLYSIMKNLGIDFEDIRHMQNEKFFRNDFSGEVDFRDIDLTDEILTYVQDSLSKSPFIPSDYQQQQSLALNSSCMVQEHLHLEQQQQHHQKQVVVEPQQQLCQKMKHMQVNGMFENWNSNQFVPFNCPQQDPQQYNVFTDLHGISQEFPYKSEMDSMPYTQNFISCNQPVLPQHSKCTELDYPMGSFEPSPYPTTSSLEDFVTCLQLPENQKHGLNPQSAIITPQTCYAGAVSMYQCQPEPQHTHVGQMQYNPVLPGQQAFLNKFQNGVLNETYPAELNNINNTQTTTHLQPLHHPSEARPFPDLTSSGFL

[2] = target: Peroxisome proliferator-activated receptor gamma/Nuclear receptor coactivator 2 (Homo sapiens, UniProt P37231); assay type: functional;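 also: agonist potency for raising coactivator recruitment to the receptor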
[3] = target: Peroxisome proliferator-activated receptor gamma/Nuclear receptor coactivator 1 (Homo sapiens, UniProt P37231); assay type: functional;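 also: agonist potency as compounds enhance coactivator SRC-1 recruitment to PPARgamma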
[4] = target: Peroxisome proliferator-activated receptor gamma/Nuclear receptor coactivator 3 (Homo sapiens, UniProt P37231); assay type: functional;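 also: agonist potency for raising coactivator recruitment to the receptor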
Estrogen receptor = target: T2, Estrogen receptor (Homo sapiens, UniProt P03372);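 also: potency for inhibiting coactivator peptide recruitment to the receptor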
T2 sequence (P03372 whole entry): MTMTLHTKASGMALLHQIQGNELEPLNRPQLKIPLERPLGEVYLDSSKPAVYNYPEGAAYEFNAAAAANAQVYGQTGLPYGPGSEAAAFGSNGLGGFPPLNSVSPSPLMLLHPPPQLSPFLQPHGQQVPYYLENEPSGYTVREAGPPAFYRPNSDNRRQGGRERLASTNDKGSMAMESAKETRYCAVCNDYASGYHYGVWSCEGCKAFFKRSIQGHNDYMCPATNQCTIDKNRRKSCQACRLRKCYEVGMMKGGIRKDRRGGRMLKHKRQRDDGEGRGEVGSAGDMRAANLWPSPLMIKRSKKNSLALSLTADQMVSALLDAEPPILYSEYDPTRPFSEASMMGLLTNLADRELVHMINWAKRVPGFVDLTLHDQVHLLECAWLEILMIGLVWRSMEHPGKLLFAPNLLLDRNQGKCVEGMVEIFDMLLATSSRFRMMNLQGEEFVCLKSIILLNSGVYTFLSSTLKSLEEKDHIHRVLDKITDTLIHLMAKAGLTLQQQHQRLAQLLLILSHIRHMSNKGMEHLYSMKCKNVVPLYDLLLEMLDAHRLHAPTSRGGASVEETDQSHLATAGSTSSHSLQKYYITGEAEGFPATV

Estrogen receptor beta [5] = target: T3, Estrogen receptor beta (Homo sapiens, UniProt Q92731); assay: ERβ–SRC-3 coactivator interaction inhibitors, confirmation, orthogonal assay, biochemical, ELISA, streptavidin-HRP readout (AID 1060)
[6] = target: Protein-tyrosine kinase 2-beta (Homo sapiens, UniProt Q14289);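 also: potency of inhibitors of PYK2 kinase phosphorylation of poly-GT substrate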
Bcl-2-like protein 10 = target: T4, Bcl-2-like protein 10 (Homo sapiens, UniProt Q9HD36); assay: displacers of TR3 peptide from Bcl-B, primary screen, selectivity assay for Bfl-1 inhibitor project, biochemical, fluorescence polarization, FITC-TR3 peptide (AID 748);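 also: fluorescence polarization from a fluorescein-labelled TR3 peptide binding purified Bcl-B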
T4 sequence (Q9HD36 whole entry): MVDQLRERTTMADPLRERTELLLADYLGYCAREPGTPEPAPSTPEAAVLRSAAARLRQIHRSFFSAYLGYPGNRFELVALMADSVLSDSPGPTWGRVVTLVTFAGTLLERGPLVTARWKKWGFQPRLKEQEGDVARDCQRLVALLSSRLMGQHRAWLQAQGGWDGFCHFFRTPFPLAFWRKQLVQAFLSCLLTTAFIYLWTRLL

Estrogen receptor beta [7] = target: T3, Estrogen receptor beta
[8] = target: DNA dC->dU-editing enzyme APOBEC-3A (Homo sapiens, UniProt P31941); assay: APOBEC3A DNA deaminase inhibitors, dose response, biochemical (AID 504722); assay type: functional
[9] = target: DNA dC->dU-editing enzyme APOBEC-3G (Homo sapiens, UniProt Q9HC16); assay: Dose Response confirmation of small molecule APOBEC3G DNA Deaminase Inhibitors via a fluorescence-based single-stranded DNA deaminase assay. [Related pubchem assays (depositor defined):AID493012, AID493028]; assay type: functional
[10] = target: T5, Mannose-6-phosphate isomerase (Homo sapiens, UniProt P34949); assay: inhibitors of human PMI, primary screen, biochemical, fluorescence intensity, coupled assay (AID 1209)
T5 sequence (P34949 whole entry): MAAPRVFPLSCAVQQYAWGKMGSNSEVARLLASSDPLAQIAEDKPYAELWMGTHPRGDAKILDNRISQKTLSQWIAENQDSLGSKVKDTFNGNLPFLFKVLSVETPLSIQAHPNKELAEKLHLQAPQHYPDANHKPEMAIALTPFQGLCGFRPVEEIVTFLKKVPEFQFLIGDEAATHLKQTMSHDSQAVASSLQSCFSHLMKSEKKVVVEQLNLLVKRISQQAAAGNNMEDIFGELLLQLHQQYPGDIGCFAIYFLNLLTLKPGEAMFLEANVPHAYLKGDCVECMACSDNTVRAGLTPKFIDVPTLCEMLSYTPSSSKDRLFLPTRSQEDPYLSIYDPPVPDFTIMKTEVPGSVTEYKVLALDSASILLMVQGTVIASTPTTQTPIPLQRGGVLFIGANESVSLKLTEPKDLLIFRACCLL

[11] = target: T5, Mannose-6-phosphate isomerase; assay: human PMI inhibitors, high substrate, primary screen, biochemical, fluorescence intensity, high mannose 6-phosphate (AID 1220)

T3 sequence (Q92731 whole entry): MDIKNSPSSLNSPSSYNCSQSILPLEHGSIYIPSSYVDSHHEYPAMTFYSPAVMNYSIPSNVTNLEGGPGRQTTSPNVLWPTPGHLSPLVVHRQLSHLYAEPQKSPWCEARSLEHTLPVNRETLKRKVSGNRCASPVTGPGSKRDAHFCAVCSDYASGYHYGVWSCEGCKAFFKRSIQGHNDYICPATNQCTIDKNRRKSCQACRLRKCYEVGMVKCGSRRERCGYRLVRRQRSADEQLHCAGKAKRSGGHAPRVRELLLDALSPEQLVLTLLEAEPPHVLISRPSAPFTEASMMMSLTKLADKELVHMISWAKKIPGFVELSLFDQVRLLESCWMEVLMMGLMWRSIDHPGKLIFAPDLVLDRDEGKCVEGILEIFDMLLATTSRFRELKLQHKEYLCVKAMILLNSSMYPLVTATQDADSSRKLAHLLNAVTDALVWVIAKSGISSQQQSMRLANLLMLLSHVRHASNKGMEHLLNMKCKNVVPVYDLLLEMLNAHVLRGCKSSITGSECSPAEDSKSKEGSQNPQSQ
Sequence of Peroxisome proliferator-activated receptor gamma/Nuclear receptor coactivator 2 (P37231 whole entry): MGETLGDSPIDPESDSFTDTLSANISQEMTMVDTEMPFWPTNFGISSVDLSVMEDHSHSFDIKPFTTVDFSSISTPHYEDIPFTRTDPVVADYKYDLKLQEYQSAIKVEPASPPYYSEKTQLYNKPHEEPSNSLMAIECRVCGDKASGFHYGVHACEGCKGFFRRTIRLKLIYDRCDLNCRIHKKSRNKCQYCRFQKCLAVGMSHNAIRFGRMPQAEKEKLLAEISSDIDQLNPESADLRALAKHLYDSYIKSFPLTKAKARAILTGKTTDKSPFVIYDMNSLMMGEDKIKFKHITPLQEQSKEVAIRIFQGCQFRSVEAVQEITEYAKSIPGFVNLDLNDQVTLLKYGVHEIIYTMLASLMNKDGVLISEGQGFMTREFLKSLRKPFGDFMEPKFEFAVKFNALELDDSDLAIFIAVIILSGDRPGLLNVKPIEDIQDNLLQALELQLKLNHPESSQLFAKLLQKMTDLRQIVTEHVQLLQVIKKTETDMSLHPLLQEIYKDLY
Sequence of Peroxisome proliferator-activated receptor gamma/Nuclear receptor coactivator 2 (Q15596 whole entry, further chain): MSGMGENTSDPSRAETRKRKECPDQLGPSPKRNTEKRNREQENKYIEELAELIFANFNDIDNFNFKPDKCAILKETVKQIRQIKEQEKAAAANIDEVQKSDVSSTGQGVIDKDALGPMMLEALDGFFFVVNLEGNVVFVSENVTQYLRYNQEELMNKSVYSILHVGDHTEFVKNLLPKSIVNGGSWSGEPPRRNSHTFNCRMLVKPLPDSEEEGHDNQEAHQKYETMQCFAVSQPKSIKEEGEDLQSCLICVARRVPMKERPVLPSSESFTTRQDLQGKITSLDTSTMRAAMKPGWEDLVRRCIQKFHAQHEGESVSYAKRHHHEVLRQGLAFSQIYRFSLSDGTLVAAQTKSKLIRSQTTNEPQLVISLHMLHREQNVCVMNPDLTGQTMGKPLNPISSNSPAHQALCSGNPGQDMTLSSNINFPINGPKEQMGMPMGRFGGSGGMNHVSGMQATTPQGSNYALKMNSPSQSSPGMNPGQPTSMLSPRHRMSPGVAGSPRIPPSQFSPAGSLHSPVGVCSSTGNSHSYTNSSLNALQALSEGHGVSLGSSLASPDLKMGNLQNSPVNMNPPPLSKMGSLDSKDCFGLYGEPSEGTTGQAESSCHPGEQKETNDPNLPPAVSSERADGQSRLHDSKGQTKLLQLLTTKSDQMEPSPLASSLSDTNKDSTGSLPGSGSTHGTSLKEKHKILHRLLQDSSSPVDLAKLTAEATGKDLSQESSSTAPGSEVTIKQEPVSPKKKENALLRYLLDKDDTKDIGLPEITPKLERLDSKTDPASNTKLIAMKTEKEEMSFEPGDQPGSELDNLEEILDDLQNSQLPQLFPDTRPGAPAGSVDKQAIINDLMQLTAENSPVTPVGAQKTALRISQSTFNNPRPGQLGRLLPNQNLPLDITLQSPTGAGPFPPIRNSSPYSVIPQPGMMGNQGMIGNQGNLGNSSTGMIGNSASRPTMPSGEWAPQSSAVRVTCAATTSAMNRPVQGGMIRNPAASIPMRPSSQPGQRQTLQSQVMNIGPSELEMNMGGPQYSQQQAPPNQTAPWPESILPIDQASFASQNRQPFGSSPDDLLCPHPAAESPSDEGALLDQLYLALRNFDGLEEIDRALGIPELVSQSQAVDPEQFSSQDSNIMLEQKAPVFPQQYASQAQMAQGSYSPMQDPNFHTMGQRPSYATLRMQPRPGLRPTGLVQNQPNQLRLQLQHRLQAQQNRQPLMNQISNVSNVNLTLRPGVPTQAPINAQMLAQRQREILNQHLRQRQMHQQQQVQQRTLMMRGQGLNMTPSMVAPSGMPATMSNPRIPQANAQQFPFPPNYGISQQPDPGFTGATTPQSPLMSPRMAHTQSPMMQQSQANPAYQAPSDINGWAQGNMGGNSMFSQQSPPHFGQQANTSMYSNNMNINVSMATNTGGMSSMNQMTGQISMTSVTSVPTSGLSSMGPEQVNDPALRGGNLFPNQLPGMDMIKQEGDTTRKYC
Sequence of Peroxisome proliferator-activated receptor gamma/Nuclear receptor coactivator 1 (P37231 whole entry): as the sequence (P37231 whole entry) above
Sequence of Peroxisome proliferator-activated receptor gamma/Nuclear receptor coactivator 1 (Q15788 whole entry, further chain): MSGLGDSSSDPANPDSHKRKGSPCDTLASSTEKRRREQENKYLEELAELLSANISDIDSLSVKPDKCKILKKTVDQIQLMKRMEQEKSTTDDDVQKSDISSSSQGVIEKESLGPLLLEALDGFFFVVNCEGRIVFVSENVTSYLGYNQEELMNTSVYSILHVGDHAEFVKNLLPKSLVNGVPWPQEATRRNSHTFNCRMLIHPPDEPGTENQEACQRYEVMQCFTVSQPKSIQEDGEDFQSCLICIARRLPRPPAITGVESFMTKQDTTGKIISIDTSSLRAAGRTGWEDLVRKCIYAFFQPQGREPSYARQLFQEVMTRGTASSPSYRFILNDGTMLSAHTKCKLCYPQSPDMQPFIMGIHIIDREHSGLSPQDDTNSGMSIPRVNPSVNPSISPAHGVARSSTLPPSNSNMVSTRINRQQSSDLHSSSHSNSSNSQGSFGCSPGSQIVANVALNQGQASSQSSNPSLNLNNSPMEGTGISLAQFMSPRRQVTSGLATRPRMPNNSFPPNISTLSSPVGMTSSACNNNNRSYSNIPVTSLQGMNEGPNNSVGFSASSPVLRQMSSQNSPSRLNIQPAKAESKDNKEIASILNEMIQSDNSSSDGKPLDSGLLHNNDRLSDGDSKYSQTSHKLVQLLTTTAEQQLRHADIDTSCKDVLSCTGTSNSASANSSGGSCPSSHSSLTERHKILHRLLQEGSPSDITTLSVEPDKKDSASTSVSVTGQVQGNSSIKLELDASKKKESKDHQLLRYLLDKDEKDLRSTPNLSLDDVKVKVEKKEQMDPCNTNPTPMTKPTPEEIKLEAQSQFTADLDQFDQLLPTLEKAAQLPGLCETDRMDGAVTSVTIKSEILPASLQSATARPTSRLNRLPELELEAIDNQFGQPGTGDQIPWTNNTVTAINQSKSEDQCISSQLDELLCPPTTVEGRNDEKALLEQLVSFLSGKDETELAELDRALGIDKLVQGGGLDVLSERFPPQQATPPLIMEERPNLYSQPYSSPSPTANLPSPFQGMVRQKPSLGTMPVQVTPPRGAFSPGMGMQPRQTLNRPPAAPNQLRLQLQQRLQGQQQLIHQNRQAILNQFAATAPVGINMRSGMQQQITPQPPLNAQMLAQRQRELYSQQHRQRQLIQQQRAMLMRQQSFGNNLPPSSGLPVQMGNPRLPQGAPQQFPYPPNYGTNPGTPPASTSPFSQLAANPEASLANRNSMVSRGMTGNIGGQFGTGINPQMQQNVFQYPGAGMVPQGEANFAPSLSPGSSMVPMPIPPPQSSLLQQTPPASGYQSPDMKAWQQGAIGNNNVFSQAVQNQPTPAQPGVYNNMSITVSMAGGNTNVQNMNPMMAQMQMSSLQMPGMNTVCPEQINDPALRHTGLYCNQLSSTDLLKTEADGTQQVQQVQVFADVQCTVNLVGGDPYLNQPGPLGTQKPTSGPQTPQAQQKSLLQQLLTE
Sequence of DNA dC->dU-editing enzyme APOBEC-3G (Q9HC16 whole entry): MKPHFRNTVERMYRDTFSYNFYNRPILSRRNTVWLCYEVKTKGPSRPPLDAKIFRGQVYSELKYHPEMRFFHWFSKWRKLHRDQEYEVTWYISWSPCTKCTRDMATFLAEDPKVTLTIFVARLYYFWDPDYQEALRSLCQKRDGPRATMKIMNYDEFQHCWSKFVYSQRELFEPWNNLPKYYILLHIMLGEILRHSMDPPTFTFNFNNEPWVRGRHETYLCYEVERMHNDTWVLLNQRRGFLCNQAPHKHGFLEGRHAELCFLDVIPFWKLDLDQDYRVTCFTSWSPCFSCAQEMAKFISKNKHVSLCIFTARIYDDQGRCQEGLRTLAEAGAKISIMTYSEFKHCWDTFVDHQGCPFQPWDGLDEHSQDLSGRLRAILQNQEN
Sequence of DNA dC->dU-editing enzyme APOBEC-3A (P31941 whole entry): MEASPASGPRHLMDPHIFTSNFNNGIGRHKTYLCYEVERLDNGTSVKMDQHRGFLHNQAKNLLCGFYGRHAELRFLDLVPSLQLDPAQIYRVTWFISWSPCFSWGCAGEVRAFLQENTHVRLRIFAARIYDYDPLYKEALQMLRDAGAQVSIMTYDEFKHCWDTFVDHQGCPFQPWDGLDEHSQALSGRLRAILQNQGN

SMILES: C=CCn1c(SCC(=O)N2CCCC2)nc2scc(-c3cccs3)c2c1=O
IC50 [6]: > 69.5 µM (not active)

SMILES: COc1ccc(C(N)CCc2ccc(C)o2)cc1 (centres undefined)
IC50 (Bcl-2-like protein 10): > 50 µM (inactive) | IC50 (Estrogen receptor beta [7]): 6.8 µM (active) | IC50 (Estrogen receptor beta [5]): 93.7 µM (not active)

SMILES: CC1(C)Cc2c(sc3ncn4c(S)nnc4c23)CO1
IC50 [8]: > 100 µM (inactive) | IC50 [9]: 3.8 µM (active) | IC50 [10]: > 50 µM (not active) | IC50 [11]: > 50 µM (not active)

Further lines, results first:

EC50 [1]: 5.87 µM (active)
SMILES: Cc1cnc(NC(=O)c2c(Cl)cnn2C)s1

EC50 [2]: 145 µM (not active) | EC50 [3]: 71.2 µM (not active) | EC50 [4]: 79.2 µM (not active)
SMILES: CC1CCN(S(=O)(=O)c2ccc(C(=O)Nc3sccc3C(N)=O)cc2)CC1

IC50 (Estrogen receptor): 18.2 µM (active) | IC50 (Estrogen receptor beta [5]): 0.0325 µM (not active)
SMILES: CCC1(C)NC(=O)N(CC(=O)Nc2sc3c(c2C(N)=O)CCC3)C1=O (centres undefined)
